Test results reported in article PMC6131539, “Behavioral Effects of a Potential Novel TAAR1 Antagonist” (Frontiers in Pharmacology, 2018).

Columns and labels:
TAAR1-KO mice [1] = experiment: Stereotypic counts, co-injection with amphetamine, TAAR1-KO mice; type: in vivo; conditions: only 15 mg/kg, co-injected with amphetamine 2 mg/kg
Description: (§1) Experimentally naïve mice, of at least 12 weeks of age, were used for all behavioral experiments. The mice were randomly assigned to treatment or control groups, balanced by sex and weight. Locomotor activity was assessed using the automated locomotor analysis monitors (Omnitech Electronics, Columbus, OH, United States). The apparatus included four open field monitors. Each Open Field monitor consisted of sets of 16 light beams arrayed in the horizontal X and Y axes. The hardware detected beams broken by the animal, which allowed the software to determine the location of the mouse in the cage. Total distance covered by mice was used to characterize locomotor activity of the animals. The monitors were divided into four compartments (20 cm × 20 cm). Animals were tested individually for defined periods with 5-min intervals. The mice were first weighed and then placed into the apparatus, allowing for 30 min habituation. […] The locomotor activity was then measured for additional 1 h. […]
(§2) Supplementary file Image_2.TIF: FIGURE S2 In vivo studies with TAAR1-KO mice and compound 22 on stereotypic counts activity. […] The sum of stereotypic counts was assessed over 60 min after the injection of amphetamine and compound 22 in WT (solid bars) or TAAR1-KO mice (spotted bars). […] The sum of stereotypic counts was assessed over 60 min following the injection in WT (solid bars) or TAAR1-KO mice (dotted bars). […]

TAAR1-KO mice [2] = experiment: Stereotypic counts, co-injection with cocaine, TAAR1-KO mice; type: in vivo; conditions: 5, 15 and 25 mg/kg co-injected with cocaine 10 mg/kg
Description: as §1, §2

C57BL/6J mice [3] = experiment: Stereotypic counts, co-injection with cocaine, C57BL/6J mice; type: in vivo; conditions: 5 and 25 mg/kg co-injected with cocaine 10 mg/kg; sum over 60 min
TAAR1-KO mice [4] = experiment: Amphetamine-induced locomotor activity, co-injection, TAAR1-KO mice; type: in vivo; conditions: 15 mg/kg co-injected with amphetamine 2 mg/kg, p = 0.004
Description: (§3) The Taarl^-/- (TAAR1-KO) mice were obtained from Lundbeck ([Wolinsky et al., 2007]). All wild type (WT) and TAAR1-KO mice used for experiments were generated from TAAR1-KO heterozygous mice in a C57BL/6J x 129S1/Sv mixed background.
(§4) Experimentally naïve mice, of at least 12 weeks of age, were used for all behavioral experiments. The mice were randomly assigned to treatment or control groups, balanced by sex and weight. Locomotor activity was assessed using the automated locomotor analysis monitors (Omnitech Electronics, Columbus, OH, United States). The apparatus included four open field monitors. Each Open Field monitor consisted of sets of 16 light beams arrayed in the horizontal X and Y axes. The hardware detected beams broken by the animal, which allowed the software to determine the location of the mouse in the cage. Total distance covered by mice was used to characterize locomotor activity of the animals. The monitors were divided into four compartments (20 cm × 20 cm). Animals were tested individually for defined periods with 5-min intervals. The mice were first weighed and then placed into the apparatus, allowing for 30 min habituation. Following the habituation, the mice were removed from the al apparatus and injected with drugs (see below for administration) or vehicle and returned immediately to the locomotor chamber.

C57BL/6J mice [5] = experiment: Basal locomotor activity in C57BL/6J mice; type: in vivo
Description: as §4, with “chamber. The locomotor activity was then measured for additional 1 h. After the experiments, the animals were euthanized by cervical dislocation.” for “chamber.”
All drug solutions were prepared freshly on the day of the experiment and injected i.p. at the volume of 10 ml/kg. […] Amphetamine was dissolved in 0.9% saline at a concentration of 0.2 mg/mL.
In order to assess the effects of compound 22 on basal locomotor activity, C57BL/6 mice were injected with doses of 5 and 30 mg/kg of compound 22 or vehicle (Figure 1). At the dose of 5 mg/kg, compound 22 inhibited basal locomotor activity by 58% (^∗p = 0.02). Although not significant, there was a trend toward a decrease in locomotor activity at the dose of 30 mg/kg as well (26% decrease, p = 0.15).
FIGURE 1 In vivo studies with compound 22 on basal locomotor activity. Wild type C57BL/6J mice were first habituated for 30 min followed by co-injection of saline or compound 22 at a dose of 5 or 30 mg/kg. The locomotor activity was assessed for 60 min after injection. […]

[6] = system: WT littermates (C57BL/6J × 129S2/Sv); experiment: Cocaine-induced locomotor activity, co-injection, WT littermates; type: in vivo, mice; conditions: 5, 15 and 25 mg/kg co-injected with cocaine 10 mg/kg
Description: as §3, §1
The locomotor activity was assessed for 60 min following the injection. […]

## Clc1ccc(CNCc2ccc(Cn3cncn3)cc2)c(Cl)c1 [compound 22]
TAAR1-KO mice [1]
  stereotypic counts: statistically significant increase in stereotypic counts
TAAR1-KO mice [2]
  stereotypic counts: significant increases in stereotypic counts
C57BL/6J mice [3]
  stereotypic counts: increase in stereotypic counts
TAAR1-KO mice [4]
  potentiation of locomotor stimulating effects of amphetamine: 84%
C57BL/6J mice [5]; 5 mg/kg i.p. alone, sum over 60 min vs saline, p = 0.02
  inhibition of basal locomotor activity: 58%
C57BL/6J mice [5]; 30 mg/kg i.p. alone, sum over 60 min vs saline, not significant, p = 0.15
  decrease in basal locomotor activity: 26%
C57BL/6J mice [5]; 5 and 30 mg/kg i.p., administered alone
  effect on locomotor activity when administered alone: did not stimulate locomotor activity
[6]
  effect on locomotor stimulating effects of cocaine: significantly potentiate
